Where two headings read alike, the source gives them in different places.
Assays:
[1] = biological target: prostate specific membrane antigen (Homo sapiens, UniProt Q04609); assay: Competitive binding sites on PSMA; settings: relative to J591, J533, E99 site
Text: To kill or ablate normal, benign hyperplastic, and cancerous prostate epithelial cells, a first antibody, e.g., a modified antibody, can be conjugated with a prodrug which is activated only when in close proximity with a prodrug activator. The prodrug activator is conjugated with a second antibody, e.g., a second modified antibody according to the present invention, preferably one that binds to a non-competing site on the prostate specific membrane antigen molecule. Whether two modified antibodies bind to competing or non-competing binding sites can be determined by conventional competitive binding assays. […] Monoclonal antibody J415, on the other hand, binds to a binding site that is non-competing with the site to which J591, J533, and E99 bind. Thus, for example, the first modified antibody can be one of J591, J533, and E99, and the second modified antibody can be J415. Alternatively, the first modified antibody can be J415, and the second modified antibody can be one of J591, J533, and E99. Drug-prodrug pairs suitable for use in the practice of the present invention are described in Blakely et al., “ZD2767, an Improved System for Antibody-directed Enzyme Prodrug Therapy That Results in Tumor Regressions in Colorectal Tumor Xenografts,” (1996) Cancer Research, 56:3287-3292, which is hereby incorporated by reference.

[2] = test system: LNCaP cells; assay: Immunoreactivity by the method of Lindmo; set-up: species or system human; settings: 111In labeled, binding extrapolated to infinite antigen excess
Protocol: The solutions were incubated at 4° C. for 60 minutes prior to being isolated (by centrifugation) and washed with ice cold PBS. The membranes were then counted in a gamma counter with standards representing the total radioactivity added. The data was plotted using the Lindmo method as the reciprocal of the substrate concentration α-axis) against the reciprocal of the fraction bound (y-axis). The data was then fitted according to a least squares linear regression method (Sigma Plot) and the y intercept taken as the reciprocal of the immunoreactivity. A similar method using membranes derived from LNCaP cells, and subsequent centrifugation isolation of the membranes, gave similar results. The results gave an average immunoreactivity of 72% (see Table 11).
Briefly five test solutions were prepared (in duplicate) containing 10,000 cpm of ^111Indium labeled-DOTA-deJ591 and various amounts of LNCaP cells or cell membranes, in a total test volume of 250 μL of 0.2% BSA 10 mM HEPES. The solutions were incubated at 4° C. for 60 minutes prior to being isolated (by centrifugation) and washed with ice cold PBS. The membranes were then counted in a gamma counter with standards representing the total radioactivity added. The data was plotted using the Lindmo method as the reciprocal of the substrate concentration α-axis) against the reciprocal of the fraction bound (y-axis). The data was then fitted according to a least squares linear regression method (Sigma Plot) and the y intercept used as the reciprocal of the immunoreactivity. The target for immunoreactivity was not less than 75%.

[3] = test system: recurrent, progressing prostate cancer; assay: Phase I trial of 111In-DOTA-deJ591, four weekly doses; type: in vivo, human
Protocol: Patients with recurrent, progressing prostate cancer received four weekly doses of ^111In-DOTA-deJ591. Doses were escalated in cohorts of three patients and ranged from 62.5-500 mg/m2 (total). […] After the first dose, patients were imaged on the day of injection (day 0) and days 1, 2, 4 and 7.
Serum PK, immune reaction and toxicity were evaluated after each dose for a minimum of 12 weeks.

[4] = test system: hormone refractory prostate cancer; type: in vivo, human
Text: All patients had rising PSA levels on three consecutive measurements.

[5] = test system: vascular endothelium of solid tumors; assay: Phase I trial of 111In-DOTA-deJ591 in refractory solid tumor malignancies; type: in vivo; settings: for Plasma clearance (T1/2): human
Text: Eligible patients were those with refractory solid tumor malignancies whose tumor types are known to express PSMA on the neovasculature.
Patients the participated in the study included eight renal cell cancer patients, four bladder cancer patients, two colon cancer patients, and one pancreas cancer patient.

[6] = test system: prostate tissue; assay: Immunohistochemistry of DOTA conjugated deJ591
Protocol: Immunohistochemistry was performed on the DOTA conjugated, partially purified, bulk intermediate deJ591.

[7] = test system: PSMA-positive human LNCaP tumors; assay: Biodistribution of 131I labeled MAbs in nude mice bearing LNCaP tumors; settings: mouse, in vivo
Protocol: (§1) Prior to use, the cells were trypsinized, counted and suspended in Matrigel (Collaborative Biomedical Products, Bedford, Mass.). Nu/Nu Balb C mice 8-10 weeks of age were inoculated, in the right and left flanks, with a suspension of 5×10^6 LNCaP cells in Matrigel (BD Biosciences, Bedford Mass.). After a period of 14-18 days, tumors (100-300 mg) had developed. The PSMA-negative DU145 and PC3 cells were implanted in nude mice in an identical manner.
(§2) The PSMA-positive and PSMA-negative tumor bearing mice were injected, via the tail vein, with 80 KBq of the iodinated MAb (400 MBq/mg) in 200 μL of PBS (pH 7.4, 0.2% BSA). Groups of animals (3-8/group) were sacrificed after 2, 4 or 6 days. The major organs and tumors were recovered. The tissue samples were weighed and counted, with appropriate standards in an automatic NaI(Tl) counter. These measured relative activity data (cpm) were background corrected and expressed as a percentage of the injected dose per gram (% ID/g). […] J415, J591 and 7E11 were labeled with ^111In (100 MBq/mg). 80 KBq of the ^111In labeled MAbs were injected in groups of animals. The % ID/g in various organs and tumor tissues was determined at 2-6 days post injection in a similar way as described for ^131I labeled MAbs.

[8] = test system: PSMA-positive human LNCaP tumors; set-up: species or system nude mice; settings: mouse, in vivo
Protocol: as §1, §2
For the imaging studies, animals were injected with 2 MBq of ^111In-DOTA-J591. […]

[9] = test system: prostate cancer; settings: in vivo
Protocol: A single patient was treated with mAb deJ591. This patient had bulky, poorly differentiated prostate cancer and had failed multiple courses of external beam radiotherapy as well as multiple forms of hormonal and non-hormonal chemotherapy. […] Four doses (#1, 3, 6 and 11) were trace-radiolabeled with either ^131Iodine or ^111Indium for pharmacokinetic determinations and biodistribution. The mean effective serum residence time of ^131I-deJ591 ranged from 31.9 to 51.3 hours, depending on the dose. Tumor localization to known tumor sites was excellent after each of the radiolabeled doses over the five month period. Dose twelve was radiolabeled with a therapeutic quantity of ^90Yttrium (19mCi) calculated to deliver less than a 150 rad dose to the blood. This dose was determined in consultation with the FDA and took into account prior radiotherapy delivered by external beam and by 131 Iodine. […] The patient's platelet count dropped to 64,000 (normal: 150,000-300,000) at five weeks post ^90Y-DOTA-deJ591 administration (as an anticipated result of radiation to the bone marrow) prior to spontaneously returning to normal levels. […] The patient experienced no side effects. The patient's PSA declined from 63 at the time of deJ591-DOTA-9Y administration to 36. […] This patient succumbed to their metastatic prostate cancer ten and one-half months after initiating treatment with ^90Y-DOTA-deJ591.

[10] = test system: hormone-refractory prostate cancer metastases; assay: Nuclear imaging with 111In or 177Lu labeled deJ591 versus standard imaging; type: in vivo, human
Protocol: The antibody scans were compared to standard imaging studies (bone, CT or MR scans) obtained on each patient to assess the underlying sensitivity, specificity, and accuracy of deJ591 targeting to metastatic sites. Bony and soft tissue metastases were evaluated independently.

[11] = test system: recurrent prostate cancer; assay: Phase II trial of deJ591 with low-dose subcutaneous IL-2; type: in vivo, human; settings: in combination with daily low-dose subcutaneous IL-2; six patients entered
Protocol: Patients receive daily low-dose subcutaneous rIL-2 (1.2×10^6 IU/m^2/day) on day 1 through day 56. […] IL-2 administration is continued during this period another two weeks afterwards. This 8-week regimen constitutes one cycle of therapy. Patients are evaluated for response at the end of one cycle. Patients who have responded to therapy or have stable disease are eligible for additional cycles of therapy. Additional cycles will be initiated when there is at least two consecutive rises in PSA at least 2 weeks apart. […] The dose of antibody will be adjusted based on additional data analysis of patients treated in this manner.

[12] = test system: PSMA-positive CWR22 xenografts; assay: Efficacy in PSMA-positive CWR22 xenografts; type: in vivo, C.B-17 scid mice
Protocol: (§3) Experiment: Male SCID mice were implanted by serial passage of CWR22 prostate tumor xenograft. […] All treatments were given intravenously. Tumor growth and animal health were continually monitored throughout the study with tumor growth measured every 3 days.
Experiment: Male C.B-17 SCID mice bearing CWR22 xenografts approximately 200 mm^3 in size received IV injections (200 μL constant volume) of the test articles according to the dose and schedule as shown in Table 22.
Male C.B-17 scid mice bearing CWR22 xenografts approximately 200 mm^3 in size received IV injections (200 μL constant volume) of the test articles according to the dose and schedule shown in the Table 23.
The objective of this study was to determine how much the dosing interval could be increased at this dosage before a loss of efficacy in terms of TGD would be observed. […] The growth delays for the other schedules were: q7d, 53.0 days; q21d, 48.0 days; and q28d, 26.9 days. Similar to other studies using the CWR22 xenograft model, no curative responses were observed, with all tumors eventually resuming growth (FIG. 18).
as §3, with “intravenously and on a schedule of every three days for 5 doses.” for “intravenously.”
as §3, with “intravenously and on a schedule of every seven days for 5 doses.” for “intravenously.”

[13] = four weekly doses, 62.5-500 mg/m2 total

Sequence of prostate specific membrane antigen (Q04609 whole entry): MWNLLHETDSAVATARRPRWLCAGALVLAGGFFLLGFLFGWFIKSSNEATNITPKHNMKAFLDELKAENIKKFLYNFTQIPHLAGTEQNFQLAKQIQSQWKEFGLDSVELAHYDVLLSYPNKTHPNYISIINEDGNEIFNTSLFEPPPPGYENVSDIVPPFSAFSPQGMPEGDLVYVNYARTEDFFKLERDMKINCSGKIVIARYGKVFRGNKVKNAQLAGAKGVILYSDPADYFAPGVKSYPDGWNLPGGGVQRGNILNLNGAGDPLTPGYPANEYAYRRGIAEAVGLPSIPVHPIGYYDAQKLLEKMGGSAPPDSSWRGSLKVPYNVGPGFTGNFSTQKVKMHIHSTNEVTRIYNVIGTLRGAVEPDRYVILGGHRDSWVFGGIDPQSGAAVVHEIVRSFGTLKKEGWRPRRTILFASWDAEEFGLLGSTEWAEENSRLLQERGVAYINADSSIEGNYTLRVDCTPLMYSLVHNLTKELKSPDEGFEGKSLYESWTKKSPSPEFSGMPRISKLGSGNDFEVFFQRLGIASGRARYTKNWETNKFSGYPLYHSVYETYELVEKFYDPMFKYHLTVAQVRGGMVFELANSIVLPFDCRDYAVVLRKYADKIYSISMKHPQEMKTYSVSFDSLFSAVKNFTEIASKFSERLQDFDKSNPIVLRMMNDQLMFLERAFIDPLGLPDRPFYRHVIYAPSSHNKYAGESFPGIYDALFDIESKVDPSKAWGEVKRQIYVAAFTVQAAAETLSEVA

J591: murine monoclonal antibody to the extracellular domain of human PSMA, hybridoma ATCC HB-12126
binding site on the prostate specific membrane antigen molecule [1]: bind to competing binding sites

^111In-DOTA-deJ591
Immunoreactivity [2]: 72% | immune reaction to the antibody [3, 13]: None of the patients developed an immune reaction to the antibody | toxicity or side effects [3, 13]: Neither this latter patient nor the remaining thirteen patients experienced any toxicity or side effects | mAb targeting to bony sites ([3]; ten patients with positive bone scans): all ten demonstrated excellent mAb targeting to bony sites | mAb targeting to soft tissue disease ([3]; three patients with soft tissue disease on CT): two demonstrated mAb targeting to these sites | false negative imaging in patients who had imagable disease ([4]; four of twenty-two): 18% | Plasma clearance (T1/2) ([4]; human, in vivo, 20 mg): 34 ± 5 h | tumor targeting in patients who had imagable disease ([4]; sixteen of twenty-two, 20 mg, 185 MBq): 72.7% | tumor targeting ([5]; 7 renal cell, 2 bladder, 1 colon cancer): ten of the fifteen patients | decline in CEA ([5]; a colon cancer patient): 50% | false negative imaging ([5]; in vivo): five of the fifteen patients | objective responses ([5]; in vivo): No objective responses occurred

DOTA conjugated deJ591
Immunoreactivity [2]: 95% | Immunoreactivity ([2]; listed as Lot 243101): 95% | Immunoreactivity ([2]; listed as Lot BIOV983.2-2): 72% | Immunohistochemistry specificity and reactivity [6]: specific to prostate tissue and the reactivity was equivalent to the naked deJ591 antibody

deJ591: deimmunized form of murine anti-PSMA antibody J591, human IgG1/kappa constant regions, NS0 cell line ATCC PTA-3709
blood activity [7]: significantly lower compared to that of 7E11 | tumor uptake [7]: 8.55±1.29 % injected dose/gram | blood activity [8]: 2.52±0.16 % ID/g | human anti-deimmunized antibody (immune) response [9]: No detectable human anti-deimmunized antibody (immune) response developed | patients with soft tissue masses accurately targeted ([10]; eight out of nine): 89% | patients without documented soft tissue metastases with negative mAb scans ([10]; fifteen patients): 100% | specificity, negative bone scans negative on the deJ591 scan ([10]; seven patients): 100% | concordance between standard imaging and mAb scans ([10]; soft tissue and bony metastases): 91% | patients with bone metastases on bone scan accurately targeted ([10]; twelve of fifteen): 80% | Liver uptake ([5]; 5 mg): 28%+/−14 | Liver uptake ([5]; 10 mg): 17%+/−7 | Liver uptake ([5]; 20 mg): 13%+/−5 | Plasma clearance (T1/2) ([5]; in vivo, 5 mg): 21 ± 11 h | Plasma clearance (T1/2) ([5]; in vivo, 10 mg): 24 ± 6 h | Plasma clearance (T1/2) ([5]; in vivo, 20 mg): 37 ± 8 h | Toxicities [11]: expected and minor | Tumor Growth Delay ([12]; Comparison II, 12.96 mg/kg, q3dX5): 1.9 days | effect on CWR22 xenograft tumor growth ([12]; every three days for 5 doses, IV, equimolar to 14.5 mg/kg deJ591-DM1): no significant effect

Reference: patent publication US7666414B2, “Methods for treating prostate cancer using modified antibodies to prostate-specific membrane antigen” (Cornell Research Foundation, Inc., priority 2001, dated 2010)
